Columns and labels:
Format in all cases: binding
[1] = target: NS5B Δ21 1b BK (Hepatitis C virus (isolate BK), UniProt P26663); assay: SPR (Biacore), kinetic two-state model, immobilized enzyme
[2] = target: T1, NS5B Δ21 1b Con1 (Hepatitis C virus (isolate Con1), UniProt Q9WMX2); assay: as above
[3] = target: NS5B Δ21 3a (Hepatitis C virus (isolate NZL1), UniProt Q81258); settings: read-out: Lomibuvir / 3a (±SD); pH 7.4, 25 °C, 10 mM MgCl2, 130 mM NaCl, 3% DMSO; allosteric, thumb II site
[4] = target: T1, NS5B Δ21 1b Con1; assay: differential scanning fluorimetry (SYPRO Orange); settings: 2 µM protein, 10 µM inhibitor, 50 mM Tris-HCl pH 7.5, up to 2% DMSO; allosteric, palm site; unreliable (text b33 differs from table; not confirmed by SPR)

NS5B Δ21 1b BK, sequence (P26663 2420-2989, stated change not applied): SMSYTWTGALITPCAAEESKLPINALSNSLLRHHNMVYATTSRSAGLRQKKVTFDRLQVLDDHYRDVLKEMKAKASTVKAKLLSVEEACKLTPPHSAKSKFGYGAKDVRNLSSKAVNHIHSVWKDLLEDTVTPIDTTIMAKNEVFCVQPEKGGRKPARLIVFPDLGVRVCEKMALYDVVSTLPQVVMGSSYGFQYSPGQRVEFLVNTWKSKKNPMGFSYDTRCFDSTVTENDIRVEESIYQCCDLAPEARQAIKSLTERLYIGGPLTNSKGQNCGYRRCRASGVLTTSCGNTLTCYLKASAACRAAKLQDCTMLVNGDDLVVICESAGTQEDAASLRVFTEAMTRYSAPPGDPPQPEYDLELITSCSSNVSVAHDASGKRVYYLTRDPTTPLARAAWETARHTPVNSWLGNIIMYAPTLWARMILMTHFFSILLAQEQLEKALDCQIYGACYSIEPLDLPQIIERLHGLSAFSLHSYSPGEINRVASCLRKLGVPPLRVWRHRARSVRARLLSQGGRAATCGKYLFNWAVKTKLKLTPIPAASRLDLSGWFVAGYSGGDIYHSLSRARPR
NS5B Δ21 3a, sequence (Q81258 2431-3000, stated change not applied): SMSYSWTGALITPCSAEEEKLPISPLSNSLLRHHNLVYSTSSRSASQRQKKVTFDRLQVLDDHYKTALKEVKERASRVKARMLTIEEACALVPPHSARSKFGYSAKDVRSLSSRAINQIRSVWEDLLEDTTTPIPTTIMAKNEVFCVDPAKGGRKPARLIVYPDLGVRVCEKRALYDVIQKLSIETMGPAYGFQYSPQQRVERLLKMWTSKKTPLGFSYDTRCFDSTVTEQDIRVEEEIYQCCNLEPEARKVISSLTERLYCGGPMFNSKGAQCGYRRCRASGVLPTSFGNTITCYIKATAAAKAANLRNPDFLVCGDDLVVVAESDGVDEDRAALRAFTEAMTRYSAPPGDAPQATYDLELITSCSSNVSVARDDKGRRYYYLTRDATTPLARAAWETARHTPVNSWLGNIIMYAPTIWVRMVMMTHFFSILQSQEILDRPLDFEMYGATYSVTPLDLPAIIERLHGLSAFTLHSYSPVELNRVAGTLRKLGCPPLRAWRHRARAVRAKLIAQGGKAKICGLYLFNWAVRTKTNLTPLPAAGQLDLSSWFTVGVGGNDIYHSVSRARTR

Compound	Kd [1]	Kd [2]	Kd [3]	1b Con1 / ΔTm [4]
CC(C)(C)C#Cc1cc(N(C(=O)[C@H]2CC[C@H](C)CC2)[C@H]2CC[C@H](O)CC2)c(C(=O)O)s1 [lomibuvir]	20 ± 0.4 nM	19 ± 7 nM	> 2000 nM	–
CNC(=O)c1c(-c2ccc(F)cc2)oc2cc(N(CCO)S(C)(=O)=O)c(C3CC3)cc12 [nesbuvir]	–	–	–	5 °C
